# Reference: patent US12122775B1, “Substituted pyrido[4,3-e]pyrrolo[1,2-a]pyrazines as CK2 inhibitors” (KING FAISAL UNIVERSITY, priority 2024, dated 2024)
# How the values were obtained:
# PC3 (prostate) = assay: In vitro cytotoxic activity MTT assay, PC3; type: cell-based; conditions: Homo sapiens, Prostate cell; PC3 (prostate) cells, exposed for 96 hours; read-out: Cytotoxicity activity IC50 (50% inhibition of cell proliferation)
# Description: (§1) Compounds 1-16 were screened for their in vitro cytotoxic activity utilizing a 3-(4,5-dimethyl-thiazol-2-yl)-2,5-diphenyltetrazolium bromide (MTT) assay against selected cancer human cell lines consisting of PC3 (prostate), HCT116 (colon), A375 (melanoma), H1299 (lung), MIAPaCa-2 (pancreas), HL60 (leukemia), MCF7 (breast), MDA-MB-231 (breast) (T. Mosmann, J. Immunol. Meth., 1983, 65, 55-63). The cells were cultured at 37° C. in RMPI1640 medium supplemented with 10% fetal bovine serum, 50 IU/mL penicillin, and 50 μg/mL streptomycin in a 5% CO2 incubator. All cells were sub-cultured 3 times/week by trypsinisation. Viable cells were seeded and allowed to adhere for 12 hours before a test drug was added in 96-well plates at an initial density of 1.0×10^5 cells/mL. Tumor cell lines were separately exposed to various concentrations of the tested compounds followed by incubation at a temperature of 37° C. during 96 hours inside a medium of fresh RMPI 1640. Cells were subsequently incubated at 37° C. using MTT at 0.5 mg/mL during 4 hours. After removal of supernatant, formazan crystals were dissolved in isopropanol and the optical density was measured at 570 nm. CX-4945 was used as a positive control.
# H1299 (lung) = assay: In vitro cytotoxic activity MTT assay, H1299; type: cell-based; conditions: Homo sapiens, NCI-H1299; H1299 (lung) cells, exposed for 96 hours; read-out: Cytotoxicity activity IC50 (50% inhibition of cell proliferation)
# Description: as §1
# MIAPaCa-2 (pancreas) = assay: In vitro cytotoxic activity MTT assay, MIAPaCa-2; type: cell-based; conditions: Homo sapiens, MIA PaCa-2; MIAPaCa-2 (pancreas) cells, exposed for 96 hours; read-out: Cytotoxicity activity IC50 (50% inhibition of cell proliferation)
# Description: as §1
# HCT116 (colon) = assay: In vitro cytotoxic activity MTT assay, HCT116; type: cell-based; conditions: Homo sapiens, HCT-116; HCT116 (colon) cells, exposed for 96 hours; read-out: Cytotoxicity activity IC50 (50% inhibition of cell proliferation)
# Description: as §1
# MCF7 (breast) = assay: In vitro cytotoxic activity MTT assay, MCF7; type: cell-based; conditions: Homo sapiens; MCF7 (breast) cells, exposed for 96 hours; read-out: Cytotoxicity activity IC50 (50% inhibition of cell proliferation)
# Description: as §1
# A375 (melanoma) = assay: In vitro cytotoxic activity MTT assay, A375; type: cell-based; conditions: Homo sapiens, A-375; A375 (melanoma) cells, exposed for 96 hours; read-out: Cytotoxicity activity IC50 (50% inhibition of cell proliferation)
# Description: as §1
# HL60 (leukemia) = assay: In vitro cytotoxic activity MTT assay, HL60; type: cell-based; conditions: Homo sapiens, HL-60; HL60 (leukemia) cells, exposed for 96 hours; read-out: Cytotoxicity activity IC50 (50% inhibition of cell proliferation)
# Description: as §1
# [1] = target: T1, recombinant human CK2 (RRββ-holoenzyme) (Homo sapiens, UniProt P68400); assay: CK2 Kinase Assay (radiometric, [γ-33P] ATP); type: biochemical; conditions: final ATP concentration 15 μM, 10 min at 30° C., eight concentrations; read-out: protein kinase CK2 activity IC50
# T1 construct: purchased Millipore
# Description: CK2 Kinase Assay was conducted using the protocol as described in Pierre F. et al; J. Med. Chem. 2011, 54, 635-654. The tested compounds in aqueous solution were added at a volume of 10 μL to a reaction mixture comprising 10 μL of assay dilution buffer (ADB; 20 mM MOPS, pH 7.2, 25 mM β-glycerol phosphate, 5 mM EGTA, 1 mM sodium orthovanadate, and 1 mM dithiothreitol), 10 μL of substrate peptide (RRRDDDSDDD, dissolved in ADB at a concentration of 1 mM), 10 μL of recombinant human CK2 (RRββ-holoenzyme, 25 ng dissolved in ADB; Millipore). Reactions were initiated by the addition of 10 μL of ATP solution (90%75 mM MgCl2, 75 μM ATP (final ATP concentration: 15 μM) dissolved in ADB; 10% [γ-33P] ATP (stock 1 mCi/100 μL; 3000 Ci/mmol (Perkin-Elmer) and maintained for 10 min at 30° C. The reactions were quenched with 100 μL of 0.75% phosphoric acid and then transferred to and filtered through a phosphor cellulose filter plate (Millipore). After washing each well five times with 0.75% phosphoric acid, the plate was dried under vacuum for 5 min and, following the addition of 15 μL of scintillation fluid to each well, the residual radioactivity was measured using a Wallac […]. The IC50 values were derived from eight concentrations of test inhibitors.
# MDA-MB-231 (breast) = assay: In vitro cytotoxic activity MTT assay, MDA-MB-231; type: cell-based; conditions: Homo sapiens; MDA-MB-231 (breast) cells, exposed for 96 hours; read-out: Cytotoxicity activity IC50 (50% inhibition of cell proliferation)
# Description: as §1
# T1 sequence (P68400 whole entry): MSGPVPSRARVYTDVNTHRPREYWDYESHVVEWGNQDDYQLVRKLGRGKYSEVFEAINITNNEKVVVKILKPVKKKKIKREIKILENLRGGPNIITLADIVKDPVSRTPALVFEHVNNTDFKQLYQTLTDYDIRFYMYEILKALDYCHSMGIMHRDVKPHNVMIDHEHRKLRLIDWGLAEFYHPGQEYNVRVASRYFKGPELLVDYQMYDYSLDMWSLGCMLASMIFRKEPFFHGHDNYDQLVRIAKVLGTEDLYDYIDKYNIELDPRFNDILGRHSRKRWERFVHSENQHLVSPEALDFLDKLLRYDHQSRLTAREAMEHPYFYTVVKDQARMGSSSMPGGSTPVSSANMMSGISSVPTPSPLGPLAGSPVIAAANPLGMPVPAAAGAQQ
# T1 sequence (P67870 whole entry partner): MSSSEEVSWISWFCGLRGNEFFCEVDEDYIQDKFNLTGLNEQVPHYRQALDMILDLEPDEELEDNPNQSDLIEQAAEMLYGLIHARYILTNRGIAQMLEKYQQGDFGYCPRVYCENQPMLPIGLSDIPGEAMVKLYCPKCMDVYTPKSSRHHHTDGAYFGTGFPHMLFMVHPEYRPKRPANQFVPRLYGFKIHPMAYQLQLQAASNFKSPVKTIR
smiles,measurement,setting,value
"O=C(O)c1ccn2c1c(Nc1cccc(Cl)c1)nc1ccncc12 [Compound 1, 6-((3-chlorophenyl)amino)pyrido[4,3-e]pyrrolo[1,2-a]pyrazine-7-carboxylic acid]",IC50,PC3 (prostate),2.8 µM
same,IC50,H1299 (lung),2.1 µM
same,IC50,MIAPaCa-2 (pancreas),1.7 µM
same,IC50,HCT116 (colon),1.5 µM
same,IC50,MCF7 (breast),5.9 µM
same,IC50,A375 (melanoma),4.6 µM
same,IC50,HL60 (leukemia),3.2 µM
same,IC50,[1],0.091 µM
same,IC50,MDA-MB-231 (breast),5.3 µM
